Assay results reported in patent publication US20250082598A1, “Melafenoxate, 2-(1-adamantylamino)ethyl 2-(4-chlorophenoxy)acetate and derivatives thereof for treating circadian rhythm sleep disorders with neurodegenerative diseases such as Alzheimer's disease” (NLS Pharmaceutics AG, priority 2021, published 2025).

Target: T1, RXFP3 (h) (Homo sapiens, UniProt Q9NSD7)
T1 sequence (Q9NSD7 1-469): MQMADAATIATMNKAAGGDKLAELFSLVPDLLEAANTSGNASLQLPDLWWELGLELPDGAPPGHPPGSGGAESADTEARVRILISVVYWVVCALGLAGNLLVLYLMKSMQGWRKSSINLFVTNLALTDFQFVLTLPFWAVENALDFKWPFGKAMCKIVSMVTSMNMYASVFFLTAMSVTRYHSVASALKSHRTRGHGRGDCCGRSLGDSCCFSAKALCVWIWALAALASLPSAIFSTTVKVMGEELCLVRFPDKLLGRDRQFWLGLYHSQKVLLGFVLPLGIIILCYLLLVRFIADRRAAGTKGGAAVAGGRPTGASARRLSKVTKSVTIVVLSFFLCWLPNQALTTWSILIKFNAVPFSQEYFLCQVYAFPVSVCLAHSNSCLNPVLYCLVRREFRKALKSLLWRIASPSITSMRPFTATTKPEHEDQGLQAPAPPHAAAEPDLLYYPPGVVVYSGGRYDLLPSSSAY
Assay: RXFP3 assay (Eurofins/LeadHunter, cAMP Hunter GPCR Biosensor)
Assay type: cell-based
Procedure: Melafenoxate is found to weakly bind with RXFP3 and RXFP4 receptors (Study FR095-0024749-Q Eurofins/leadHunter Jun. 25, 2021; unpublished data).
In these assays' compounds were tested in agonist and antagonist mode with the GPCR Biosensor Assays and match to this design:
• 1. CAMP Hunter cell lines were expanded from freezer stocks according to standard procedures. • 2. Cells were seeded in a total volume of 20 μL into white walled, 384-well microplates and incubated at 37° C. for the appropriate time prior to testing. • 3. cAMP modulation was determined using the DiscoverX HitHunter CAMP XS+assay.
• 1. For agonist determination, cells were incubated with sample to induce response. • 2. Media was aspirated from cells and replaced with 15 μL 2:1 HBSS/10 mM Hepes: CAMP XS+ Ab reagent. • 3. […]
• 1. […] Microplates were read following signal generation with a PerkinElmer Envision™ instrument for chemiluminescent signal detection.
• 1. Compound activity was analyzed using CBIS data analysis suite (ChemInnovation, CA). • 2. For Gs agonist mode assays, percentage activity is calculated using the following formula:
% Activity=100%×(mean RLU of test sample−mean RLU of vehicle control)/(mean RLU of MAX control−mean RLU of vehicle control). • 3. For Gs positive allosteric mode assays, percentage modulation is calculated using the following formula: http://www.eurofinsdiscoveryservices.com Confidential Jun. […]

binding with RXFP3 receptor (in words): weakly bind
% Inhibition at 5*10^−5 M (5*10^−5 M): 29.1%
Compound: O=C(COc1ccc(Cl)cc1)OCCNC12CC3CC(CC(C3)C1)C2 [Melafenoxate, 2-(1-adamantylamino)ethyl 2-(4-chlorophenoxy)acetate]
